{"source": "patent US9284567B2", "about": "“Method for gene introduction into hordeum plant using agrobacterium, and method for production of transformed plant of hordeum plant” (JAPAN TOBACCO INC., priority 2010, dated 2016)", "key": {"[1]": {"system": "scutellum of barley immature embryo", "assay": "Gene introduction efficiency (GUS expression index) after coculture with Agrobacterium", "format": "cell-based, barley (variety: Golden Promise)", "protocol": "Immature embryos (size: 1.5 to 2.0 mm) of barley (variety: Golden Promise) from which embryonic axes were removed were aseptically collected and were immersed in 1 mL of sterilized water in a 2-mL microtube. In order to enhance the gene introduction efficiency, the tube containing the immature embryos was heated in a water bath at 43° C. for 5 minutes. An Agrobacterium strain EHA101 having a hygromycin resistance gene (pIG121Hm) (Non-Patent Literature 2) was suspended in an MG/L liquid medium (Non-Patent Literature 28) containing 100 μM acetosyringone and was shake-cultured (180 rpm) at 28° C. overnight (about 20 hours) to prepare an inoculation source. The bacterial concentration was adjusted to an O.D. of 1.0 (660 nm). The inoculation source was added to the thermal-treated immature embryos, and a reduced pressure treatment was performed with a vacuum pump at 500 mbar for 10 minutes. The immature embryos were washed once with a callus induction liquid medium, CIMT (Tingay et al., 1997: Non-Patent Literature 5) not containing any plant growth regulator (hereinafter, antiauxins, cytokinins, and auxins are collectively referred to as plant growth regulators). The immature embryos inoculated with Agrobacterium were transplanted onto a barley coculture medium (1/10 diluted MS inorganic salts and MS vitamins, 10 g/L of glucose, 0.5 g/L of MES, 5 μM AgNO3, and 5 μM CuSO4, pH 5.8; and 8 g/L of agarose) containing 100 μM acetosyringone in such a manner that the scutellum side faces upward. The test was performed using two plant growth regulators in four test groups of the coculture medium. That is, the four test groups are a hormone-free test group not containing any plant growth regulator, a test group of 5 μM TIBA (antiauxin), a test group of 1.13 μM dicamba (auxin), and a test group of 11.3 μM dicamba (auxin).\nImmature embryos cultured at 25° C. in the dark for 24 hours were transplanted in a CIMT resting medium (Tingay et al., 1997: Non-Patent Literature 5) containing 0.5 mg/L of 2,4-D and 1.25 mg/L of CuSO4.5H2O. The resting medium was added with 250 mg/L of carbenicillin and 100 mg/T, of cefotaxime for Agrobacterium eradication. […] The expression of the GUS gene in the scutellum region of each immature embryo was evaluated in seven grades: 87.5 (expressed in 75% or more of scutellum), 62.5 (expressed in 50% or more and less than 75% of scutellum), 37.5 (expressed in 25% or more and less than 50% of scutellum), 17.5 (expressed in 10% or more and less than 25% of scutellum), […] (expressed in 1% or more and less than 10% of scutellum), 0.5 (expressed in exceeding 0% and less than 1% of scutellum), and 0 (no expression), and the average value thereof was expressed by a numerical value as the GUS expression index. […]"}, "[2]": {"system": "barley immature embryos", "assay": "Transformation efficiency per immature embryo (hygromycin-resistant and GUS-positive regenerated plants)", "format": "cell-based, barley (variety: Golden Promise)", "protocol": "The preparation of materials and the inoculation with Agrobacterium were performed as in Example 1. The thermal treatment was also similarly performed.\nTest group (1): Immature embryos inoculated with Agrobacterium were placed on the coculture medium described in Harwood et al. (2008: Non-Patent Literature 11) in such a manner that the scutellum faces downward. The coculture was performed at 25° C. in the dark for 3 days. In this test group, the centrifugation treatment was not performed.\nTest group (2): Isolated immature embryos were transferred in a 2-mL microtube containing 1 mL of sterilized water and were centrifuged at 25° C. at 15000 rpm (20000×g) for 10 minutes. Subsequently, coculture was performed as in test group (1).\nTest group (3): Immature embryos cocultured as in test group (1) were transferred in a 2-mL microtube containing 1 mL of sterilized water and were centrifuged at 25° C. at 15000 rpm (20000×g) for 10 minutes.\nTest group (4): Immature embryos inoculated with Agrobacterium were transferred onto a barley coculture medium (1/10 diluted MS inorganic salts and MS vitamins, 10 g/L of glucose, 5 μM TIBA, 0.5 g/L of MES, 5 μM AgNO3, and 5 μM CuSO4, pH 5.8; and 8 g/L of agarose) containing 100 μM acetosyringone in such a manner that the scutellum side faces upward. The immature embryos were cultured at 25° C. in the dark for 24 hours. In this test group, the centrifugation treatment was not performed.\nTest group (5): Isolated immature embryos were transferred in a 2-mL microtube containing 1 mL of sterilized water and were centrifuged at 25° C. at 15000 rpm (20000×g) for 10 minutes. Subsequently, coculture was performed as in test group (4).\nTest group (6): Immature embryos cocultured as in test group (4) were transferred in a 2-mL microtube containing 1 mL of sterilized water and were centrifuged at 25° C. at 15000 rpm (20000×g) for 10 minutes.\nThat is, test groups (1), (2), and (3) used a coculture medium containing an auxin, dicamba, and undiluted MS inorganic salts, whereas test groups (4), (5), and (6) used a coculture medium containing an antiauxin, TIBA, and 1/10 diluted MS inorganic salts. Test group (7) used a hormone-free coculture medium containing 1/10 diluted MS inorganic salts.\nThe immature embryos prepared in test groups (1) to (7) were each transplanted in a CIMT resting medium (Tingay et al., 1997: Non-Patent Literature 5) containing 0.5 mg/L of 2,4-D, but not containing any selective agents. The resting medium was added with 250 mg/L of carbenicillin and 100 mg/L of cefotaxime for Agrobacterium eradication. The immature embryos were cultured at 25° C. in the dark for 7 days and were each divided into four sections. The divided sections were transplanted in a CIMT resting medium (Tingay et al., 1997: Non-Patent Literature 5) containing 0.2 mg/L of 2,4-D and 5 μM CuSO4, but not containing any selective agent. After the resting culture at 25° C. in the dark for 10 days, each four-divided immature embryo section was further divided into three to six subsections (i.e., one immature embryo was divided into 12 to 24 sections). The divided subsections were placed on a CIMT selection medium (Tingay et al., 1997: Non-Patent Literature 5) containing 0.1 mg/L of 2,4-D, 1.5 μM CuSO4, and 75 mg/L of hygromycin and were cultured at 25° C. in the dark for 10 days. Subsequently, subsections having cell clump supposed to be hygromycin resistance were subcultured in a selection medium having the same composition and were cultured at 25° C. in the dark for 10 days.\nOne hygromycin resistance callus for each divided section was placed on a transition (regeneration preculture) medium (Harwood et al. (2008: Non-Patent Literature 11)) not containing hygromycin and was cultured at 25° C. in the dark for about 2 weeks."}, "[3]": {"system": "barley immature embryos", "assay": "Hygromycin resistance callus formation after secondary selection", "format": "cell-based, barley (variety: Golden Promise)", "details": "Example 4, 5 μM TIBA in coculture medium", "protocol": "The materials, the method of inoculation with Agrobacterium, the thermal treatment conditions, the coculture step, the centrifugation treatment conditions, and the resting step were the same as those in Example 3. The coculture medium contained an antiauxin: 5 μM TIBA. The scutellum was divided into four sections, and the resting step was further continued for 10 days. After the resting step, each divided scutellum section was further divided into 4 subsections (i.e., one immature embryo was divided into 16 sections). The divided subsections were transplanted in a CIMT selection medium (Tingay et al., 1997: Non-Patent Literature 5) containing 50 mg/L of hygromycin B and 1.25 mg/L of CuSO4.5H2O. The selection medium was added with 250 mg/L of carbenicillin for Agrobacterium eradication. Scutellum subsections were sorted by the original immature embryo and placed on the medium. After the culture at 25° C. in the dark for 2 weeks, only compact calli were selected by removing sponge-like calli containing a large amount of moisture. […] After the culture, hygromycin resistance compact calli propagated on the selection medium were counted. Note that even when a plurality of resistance calli were formed from scutellum subsections derived from a single immature embryo, only one of the resistance calli was counted as a hygromycin resistance callus for each immature embryo."}, "[4]": {"system": "barley immature embryos", "assay": "Callus formation from cocultured immature embryos", "format": "cell-based", "details": "0.25 mg/L (1.13 μM) in 1/10 diluted MS coculture medium, no centrifugation or pressurization"}}}
{"smiles": "O=C(O)c1cc(I)cc(I)c1I", "note": "[TIBA, 2,3,5-triiodobenzoic acid]", "values": [{"measurement": "gene introduction efficiency (GUS expression index)", "setting": "[1]; Example 1, FIG. 1, 5 μM in 1/10 diluted MS coculture medium, coculture 24 hours, versus plant growth regulator-free group", "value": "notably enhanced"}, {"measurement": "transformation efficiency per immature embryo", "setting": "[2]; test group 4: 5 μM TIBA, 1/10 diluted MS coculture medium, 24 hours, no centrifugation treatment", "value": "no transformant was obtained at all"}, {"measurement": "transformation efficiency per immature embryo", "setting": "[2]; test group 5: 5 μM TIBA, 1/10 diluted MS coculture medium, centrifugation treatment before inoculation with Agrobacterium", "value": 90, "unit": "%"}, {"measurement": "transformation efficiency per immature embryo", "setting": "[2]; test group 6: 5 μM TIBA, 1/10 diluted MS coculture medium, centrifugation treatment after coculture", "value": 100, "unit": "%"}, {"measurement": "frequency of hygromycin resistance callus formation from immature embryos", "setting": "[3]; with centrifugation treatment after coculture, after secondary selection", "value": 80, "unit": "%"}, {"measurement": "frequency of hygromycin resistance callus formation from immature embryos", "setting": "[3]; without centrifugation treatment", "value": "no callus survived in the selection medium"}]}
{"smiles": "O=C(O)COc1ccc(Cl)cc1Cl", "note": "[2,4-D, 2,4-dichlorophenoxyacetic acid]", "values": [{"measurement": "gene introduction efficiency relative to hormone-free coculture medium", "setting": "[1]; Example 5, FIG. 3, 1.13 μM in 1/10 diluted MS coculture medium", "value": "about one-sixth that of the hormone-free coculture medium"}, {"measurement": "gene introduction efficiency (GUS expression index)", "setting": "[1]; Example 5, FIG. 3, 11.3 μM in 1/10 diluted MS coculture medium", "value": "lowest"}, {"measurement": "callus formation from cocultured immature embryos", "setting": "[4]", "value": "almost no callus was formed"}]}
{"smiles": "COc1c(Cl)ccc(Cl)c1C(=O)O", "note": "[dicamba, 3,6-dichloro-2-methoxybenzoic acid]", "values": [{"measurement": "gene introduction efficiency (GUS expression index)", "setting": "[1]; Example 1, FIG. 1, 11.3 μM in 1/10 diluted MS coculture medium, coculture 24 hours", "value": "lowest"}, {"measurement": "transformation efficiency per immature embryo", "setting": "[2]; test group 1: conventional coculture medium with dicamba, undiluted MS, coculture 3 days, without centrifugation treatment", "value": 30, "unit": "%"}, {"measurement": "transformation efficiency per immature embryo", "setting": "[2]; test group 2: conventional coculture medium with dicamba, undiluted MS, centrifugation treatment before inoculation", "value": "no transformant was obtained at all"}, {"measurement": "transformation efficiency per immature embryo", "setting": "[2]; test group 3: conventional coculture medium with dicamba, undiluted MS, centrifugation treatment after coculture", "value": 20, "unit": "%"}]}
